Measurements published in patent publication US20080274892A1, “Novel Haloalkylsulfonanilide Derivative, Herbicide, and Method of Use Thereof” (priority 2005, published 2008).

Columns and labels:
false pimpernel [1] = test: Test Example 1: herbicidal efficacy on rice paddy weeds pre-emergence; format: in vivo, Lindernia pyxidaria; settings: 21 days
bulrush [2] = test: as above; format: in vivo, Scirpus juncoides; settings: 21 days
[3] = tested on: paddy rice plant (cultivar: Nihonbare); test: Test Example 3: phytotoxicity test for transplanted paddy rice plant; format: in vivo; settings: 21 days after treatment; for Phytotoxicity to paddy rice: transplanted rice
Method in brief: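 Clay loam soil was placed in a 75 cm^2 plastic pot and flooded to a water depth of 5 cm. Two Nihonbare paddy rice plants at the two-leaf stage were transplanted 1 cm deep and grown in a hot house. After treatment, pots stayed in the hot house for 21 days, and phytotoxicity was then graded against an untreated control.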

bulrush [4] = test: Test Example 2: herbicidal efficacy on rice paddy weeds post-emergence; format: in vivo, Scirpus juncoides; settings: 21 days after treatment
false pimpernel [5] = test: as above; format: in vivo, Lindernia pyxidaria; settings: 21 days after treatment
barnyard glass = test: as above; format: in vivo, Echinochloa crus-galli; settings: 21 days after treatment
Method in brief: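 Plastic pots of 75 cm^2 were filled with clay loam soil and sown with barnyard glass and bulrush seeds, then topped with 75 cm^3 soil containing false pimpernel seeds. The pots were flooded to 5 cm water depth and held in a hot house. Twenty-one days after treatment, herbicidal efficacy was graded against an untreated control.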

[6] = dosage 1000 g/ha, treated 5 days after transplantation
[7] = dosage 1000 g/ha, post-emergence, one leaf stage
[8] = dosage 300 g/ha, post-emergence, one leaf stage
[9] = dosage 1000 g/ha active ingredient, vs untreated control
[10] = dosage 1000 g/ha active ingredient, post-emergence treatment at one leaf stage, vs untreated control

Row | SMILES | False pimpernel pre (herbicidal efficacy grade) (false pimpernel [1]; dosage 1000 g/ha) | Bulrush pre (herbicidal efficacy grade) (bulrush [2]; dosage 1000 g/ha) | Phytotoxicity to paddy rice [3, 6] | Bulrush post (herbicidal efficacy grade) (bulrush [4]; [7]) | False pimpernel post (herbicidal efficacy grade) (false pimpernel [5]; [7]) | Burnyard grass post (herbicidal efficacy grade) (barnyard glass; [7]) | also measured
1 | CC(C)COC(=O)N(c1ccccc1CN1CC(C)(COc2ccccc2)OC1=O)S(=O)(=O)C(F)(F)F (stereo not drawn) [Compound 1-158] | 4 (90%-100% of herbicidal efficacy or phytotoxicity) | 4 (90%-100% of herbicidal efficacy or phytotoxicity) | 1 (1%-39% of herbicidal efficacy or phytotoxicity) | 4 (90%-100% of herbicidal efficacy or phytotoxicity) | 4 (90%-100% of herbicidal efficacy or phytotoxicity) | 4 (90%-100% of herbicidal efficacy or phytotoxicity) | 
2 | CCCC1COC(=O)N1Cc1ccccc1N(C(=O)OCC(C)C)S(=O)(=O)C(F)(F)F (stereo not drawn) [Compound 1-8] |  |  |  |  |  |  | False pimpernel pre (herbicidal efficacy grade) (false pimpernel [1]; dosage 300 g/ha): 4 (90%-100% of herbicidal efficacy or phytotoxicity); Bulrush pre (herbicidal efficacy grade) (bulrush [2]; dosage 300 g/ha): 4 (90%-100% of herbicidal efficacy or phytotoxicity); Phytotoxicity to paddy rice ([3]; dosage 300 g/ha): 0 (0% of herbicidal efficacy or phytotoxicity); Bulrush post (herbicidal efficacy grade) (bulrush [4]; [8]): 4 (90%-100% of herbicidal efficacy or phytotoxicity); False pimpernel post (herbicidal efficacy grade) (false pimpernel [5]; [8]): 2 (40%-69% of herbicidal efficacy or phytotoxicity); Burnyard grass post (herbicidal efficacy grade) (barnyard glass; [8]): 4 (90%-100% of herbicidal efficacy or phytotoxicity)
3 | CC1(C)CN(Cc2cc3c(cc2NS(=O)(=O)C(F)(F)F)OCO3)C(=O)O1 [1-215] |  |  |  |  |  |  | False pimpernel pre (herbicidal efficacy grade) (false pimpernel [1]; [9]): 4 (90%-100% of herbicidal efficacy or phytotoxicity); Bulrush pre (herbicidal efficacy grade) (bulrush [2]; [9]): 2 (40%-69% of herbicidal efficacy or phytotoxicity); Phytotoxicity to paddy rice (grade) ([3]; dosage 1000 g/ha active ingredient, treated 5 days after transplantation, vs untreated control): 0 (0% of herbicidal efficacy or phytotoxicity); Bulrush post (herbicidal efficacy grade) (bulrush [4]; [10]): 2 (40%-69% of herbicidal efficacy or phytotoxicity); False pimpernel post (herbicidal efficacy grade) (false pimpernel [5]; [10]): 3 (70%-89% of herbicidal efficacy or phytotoxicity); Burnyard grass post (herbicidal efficacy grade) (barnyard glass; [10]): 1 (1%-39% of herbicidal efficacy or phytotoxicity)
4 | CC[C@H]1CN(Cc2ccccc2NS(=O)(=O)C(F)(F)F)C(=O)O1 [Compound 1-55] | 4 (90%-100% of herbicidal efficacy or phytotoxicity) | 4 (90%-100% of herbicidal efficacy or phytotoxicity) | 1 (1%-39% of herbicidal efficacy or phytotoxicity) | 4 (90%-100% of herbicidal efficacy or phytotoxicity) | 4 (90%-100% of herbicidal efficacy or phytotoxicity) | 4 (90%-100% of herbicidal efficacy or phytotoxicity) | 
5 | CCCC1CN(Cc2ccccc2NS(=O)(=O)C(F)(F)F)C(=O)O1 (stereo not drawn) [Compound 1-29] | 4 (90%-100% of herbicidal efficacy or phytotoxicity) | 4 (90%-100% of herbicidal efficacy or phytotoxicity) | 2 (40%-69% of herbicidal efficacy or phytotoxicity) | 4 (90%-100% of herbicidal efficacy or phytotoxicity) | 4 (90%-100% of herbicidal efficacy or phytotoxicity) | 4 (90%-100% of herbicidal efficacy or phytotoxicity) | 
6 | CCC1(C)CN(Cc2ccccc2NS(=O)(=O)C(F)(F)F)C(=S)O1 (stereo not drawn) [Compound 1-180] | 4 (90%-100% of herbicidal efficacy or phytotoxicity) | 4 (90%-100% of herbicidal efficacy or phytotoxicity) | 2 (40%-69% of herbicidal efficacy or phytotoxicity) | 4 (90%-100% of herbicidal efficacy or phytotoxicity) | 4 (90%-100% of herbicidal efficacy or phytotoxicity) | 4 (90%-100% of herbicidal efficacy or phytotoxicity) | 
7 | CC(C)COC(=O)N(c1ccccc1CN1C(=O)OCC1C(C)C)S(=O)(=O)C(F)(F)F (stereo not drawn) [Compound 1-10] | 4 (90%-100% of herbicidal efficacy or phytotoxicity) | 4 (90%-100% of herbicidal efficacy or phytotoxicity) | 1 (1%-39% of herbicidal efficacy or phytotoxicity) | 4 (90%-100% of herbicidal efficacy or phytotoxicity) | 4 (90%-100% of herbicidal efficacy or phytotoxicity) | 4 (90%-100% of herbicidal efficacy or phytotoxicity) | 
8 | CCCC1CN(Cc2ccccc2N(C(=O)OCC(C)C)S(=O)(=O)C(F)(F)F)C(=O)O1 (stereo not drawn) [Compound 1-30] | 4 (90%-100% of herbicidal efficacy or phytotoxicity) | 4 (90%-100% of herbicidal efficacy or phytotoxicity) | 0 (0% of herbicidal efficacy or phytotoxicity) | 4 (90%-100% of herbicidal efficacy or phytotoxicity) | 4 (90%-100% of herbicidal efficacy or phytotoxicity) | 4 (90%-100% of herbicidal efficacy or phytotoxicity) | 
9 | CCCCC1(C)CN(Cc2ccccc2N(C(=O)OCC(C)C)S(=O)(=O)C(F)(F)F)C(=O)O1 (racemic) [Compound 1-123] | 4 (90%-100% of herbicidal efficacy or phytotoxicity) | 4 (90%-100% of herbicidal efficacy or phytotoxicity) | 1 (1%-39% of herbicidal efficacy or phytotoxicity) | 4 (90%-100% of herbicidal efficacy or phytotoxicity) | 4 (90%-100% of herbicidal efficacy or phytotoxicity) | 4 (90%-100% of herbicidal efficacy or phytotoxicity) | 
10 | O=C1OC(c2ccccc2)CN1Cc1ccccc1NS(=O)(=O)C(F)(F)F (stereo not drawn) [Compound 1-41] | 4 (90%-100% of herbicidal efficacy or phytotoxicity) | 4 (90%-100% of herbicidal efficacy or phytotoxicity) | 1 (1%-39% of herbicidal efficacy or phytotoxicity) | 3 (70%-89% of herbicidal efficacy or phytotoxicity) | 2 (40%-69% of herbicidal efficacy or phytotoxicity) | 4 (90%-100% of herbicidal efficacy or phytotoxicity) | 
11 | CC(C)COC(=O)N(c1ccccc1CN1CC(C)(COCc2ccccc2)OC1=O)S(=O)(=O)C(F)(F)F (stereo not drawn) [Compound 1-174] | 4 (90%-100% of herbicidal efficacy or phytotoxicity) | 4 (90%-100% of herbicidal efficacy or phytotoxicity) | 1 (1%-39% of herbicidal efficacy or phytotoxicity) | 4 (90%-100% of herbicidal efficacy or phytotoxicity) | 4 (90%-100% of herbicidal efficacy or phytotoxicity) | 4 (90%-100% of herbicidal efficacy or phytotoxicity) | 
12 | CC1N(Cc2ccccc2NS(=O)(=O)C(F)(F)F)C(=O)OC1(C)C (stereo not drawn) [Compound 1-96] | 4 (90%-100% of herbicidal efficacy or phytotoxicity) | 4 (90%-100% of herbicidal efficacy or phytotoxicity) | 3 (70%-89% of herbicidal efficacy or phytotoxicity) | 4 (90%-100% of herbicidal efficacy or phytotoxicity) | 4 (90%-100% of herbicidal efficacy or phytotoxicity) | 4 (90%-100% of herbicidal efficacy or phytotoxicity) | 
13 | CC(C)COC(=O)N(c1ccccc1CN1CC(c2ccccc2)OC1=O)S(=O)(=O)C(F)(F)F (stereo not drawn) [Compound 1-42] | 4 (90%-100% of herbicidal efficacy or phytotoxicity) | 3 (70%-89% of herbicidal efficacy or phytotoxicity) | 0 (0% of herbicidal efficacy or phytotoxicity) | 3 (70%-89% of herbicidal efficacy or phytotoxicity) | 3 (70%-89% of herbicidal efficacy or phytotoxicity) | 4 (90%-100% of herbicidal efficacy or phytotoxicity) | 
14 | COCC1(C)CN(Cc2ccccc2N(C(=O)OCC(C)C)S(=O)(=O)C(F)(F)F)C(=O)O1 (stereo not drawn) [Compound 1-138] | 4 (90%-100% of herbicidal efficacy or phytotoxicity) | 4 (90%-100% of herbicidal efficacy or phytotoxicity) | 2 (40%-69% of herbicidal efficacy or phytotoxicity) | 4 (90%-100% of herbicidal efficacy or phytotoxicity) | 4 (90%-100% of herbicidal efficacy or phytotoxicity) | 4 (90%-100% of herbicidal efficacy or phytotoxicity) | 
15 | CC(C)(C)C1(C)CN(Cc2ccccc2NS(=O)(=O)C(F)(F)F)C(=O)O1 (stereo not drawn) [Compound 1-69] |  |  |  |  |  |  | False pimpernel pre (herbicidal efficacy grade) (false pimpernel [1]; dosage 300 g/ha): 4 (90%-100% of herbicidal efficacy or phytotoxicity); Bulrush pre (herbicidal efficacy grade) (bulrush [2]; dosage 300 g/ha): 4 (90%-100% of herbicidal efficacy or phytotoxicity); Phytotoxicity to paddy rice ([3]; dosage 300 g/ha): 1 (1%-39% of herbicidal efficacy or phytotoxicity); Bulrush post (herbicidal efficacy grade) (bulrush [4]; [8]): 4 (90%-100% of herbicidal efficacy or phytotoxicity); False pimpernel post (herbicidal efficacy grade) (false pimpernel [5]; [8]): 4 (90%-100% of herbicidal efficacy or phytotoxicity); Burnyard grass post (herbicidal efficacy grade) (barnyard glass; [8]): 3 (70%-89% of herbicidal efficacy or phytotoxicity)
